Earlier results on two compounds are cited in patent publication US9101669B2, “Self-assembed conjugate and use thereof” (POSTECH ACADEMY-INDUSTRY FOUNDATION, priority 2012, dated 2015).

Molecules are shown by their SMILES. Bounds are passed on as bounds.

For this data set the following is noted: 1 to 1 host-guest complex, protonated forms, aqueous solution.

As for `NCCCCCCN` [DAH, 1,6-diaminohexane], the binding constant entry is “up to 10^10 M^−1”.
For the compound `NCCCNCCCCNCCCN` [SPM, spermine], the binding constant is ≤ 10^12 M^−1.
